Measured values published in patent US12729368B2, “Methods and compositions for generating oligodendrocyte progenitor cells” (Trailhead Biosystems Inc., priority 2022, dated 2026).
Where “and” joins values, the source holds several entries; their conditions need not be identical. Equal entries are not always repeated.

Columns and labels:
[1] = tested on: stage 2 early-OPCs; test: HD-DoE 12-factor model for stage 3 (version 1) on stage 2 early-OPCs; type: cell-based, human; conditions: for factor contribution: positive
Description: In another model, the effects of Activin A and TTNPB along with LDN193189, MHY1485, PDGF-AA, AICAR, FGF2, CHIR99021, DBZ, MK2206, Purmorphamine and T3+T4 were tested on gene profile of differentiating cells. When this model was optimized for maximum expression of SOX10 at 54.7, we observed Activin A again had positive regulatory impact on its expression, with factor contribution of 4.7. Other positive factors included MK2206, with the highest factor contribution at 16.2, MHY1485 at 11.49, CHIR99021 at 9.6, DBZ at 9.3, FGF2 at 3.6 and PDGF-AA, with factor contribution less than 3 (FIG. 20).
In this model, we also investigated the conditions of expression of another important OPC gene, CSPG4 (Goldman and Kuypers (2015) Development 142:3983-95: van Tilborg et al. (2018) Glia 66:221-238).
Dynamic profile analysis was used to better assess the impact of the factors on our selected genes and find the combination set that can optimize their expression (FIG. 22). According to this analysis, even though Activin A has a positive effect on SOX10, it decreases level of PDGFRa and OLIG1. […] Moreover, SOX10 is one of the main transcription factors of oligodendrocytes, along with OLIG2 and NKX2-2, that has shown the potential to commit the stem cells to oligodendrocytes in reprogramming efforts (Wang et al. (2014) Proc Natl Acad Sci USA 111:E2885-94; Garciá-León et al. (2018) Stem Cell Reports 10:655-672). […] One of the main challenges of differentiating cells to oligodendrocyte fate is controlling the mixed population and increasing the purity of the culture by committing more cells to oligodendrocyte over neuronal identity. Therefore, DBZ was excluded from the final recipe.
At this point, we investigated the expression profile of a larger group of genes defining oligodendrocyte progenitor population at a later stage, including ID2, CNP and BCAN (Perlman et al. (2020). Glia 68:1291-1303; Goldman and Kuypers (2015) Development 142:3983-95). In this model, these genes were expressed at 1900, 660 and 44, respectively.

[2] = tested on: pre-OPCs; test: HD-DoE 8-factor model for stage 2 (version 2) on pre-OPCs; type: cell-based, human; conditions: for factor contribution: positive
Description: To engineer the recipe of stage 2 of differentiation, cells were first cultured in the stage 1 media described in Example 1, then, 48 or 96 different combinations of effectors generated using Design-of-Experiments compression through D-optimality were robotically prepared. The effector combinations were prepared in a basal media and were subsequently added to the cells, which were then allowed to differentiate. Three days later RNA extraction was performed, and gene expression was obtained using quantitative PCR analysis. The data was normalized and modeled using partial least squares regression analysis to the effector design, resulting in the generation of gene-specific models, which after model tuning for maximal predictive power, provided explanation of the effectors ability to control the expression of individual genes, combinatorically, and individually. Solutions within the tested space could then be explored to address desirability.
At this point, due to short duration of culture (only six days in vitro) we decided to focus on maximal expression of OLIG2 and maintenance of high expression of NKX2-2, while initiating expression of SOX10, OLIG1 and PDGFRa, to guide the cells towards oligodendrocyte fate (Emery and Lu (2015). Cold Spring Harb Perspect Biol. 7:a020461; Perlman et al. (2020). Glia 68:1291-1303; Goldman and Kuypers (2015) Development 142:3983-95). In one 8-factor model, the individual and combinatorial impact of CHIR99021 (a WNT pathway agonist), AGN193109 (an RA pathway antagonist), FGF-2 (an FGFR agonist), Purmorphamine (an SHH pathway agonist), AICAR (an AMPK agonist), GW3965 (an LXR pathway agonist), GW590735 (a PPAR-a agonist) and AZD3147 (a mTOR antagonist) on further differentiation of cells were tested.

[3] = tested on: cells cultured in stage 1 and stage 2 differentiation media; test: HD-DoE 8-factor model for stage 3 (version 2); type: cell-based, human; conditions: positive
Description: To further differentiate the cells to an oligodendrocyte progenitor identity, additional HD-DoE experiments were performed on the cells that were cultured in stage 1 and stage 2 differentiation media. After 3 days, gene expression of cells in different combinatorial conditions were investigated. At this time, we focused on maximal expression of signature oligodendrocyte progenitor genes such as SOX10, OLIG1 and PDGFRa (Goldman and Kuypers (2015) Development 142:3983-95: Marques et al. (2016) Science 352:1326-1329). In one 8-factor model, individual and combinatorial effects of TTNPB (an RA agonist), CHIR99021, FGF-2, IGF-1, AGN193109, Purmorphamine, MHY1485 (a mTOR pathway agonist) and SC79 (an AKT pathway agonist) were tested to guide the cells toward a SOX10/PDGFRa positive population. […] CHIR99021 was also positive, with a factor contribution of 8.1 (FIG. 33).
Other positive factors were IGF-1, with a factor contribution of 11.2, CHIR99021, with a factor contribution of 8.5 and TTNPB, with a factor contribution below 1 (FIG. 34).
To confirm the impact of TTNPB, FGF-2 and IGF-1 on a bigger scale, we investigated the expression profile of a larger group of genes defining late oligodendrocyte progenitor population, such as ID2, CSPG4, FYN, SOX8, PLP1 and BCAN (Perlman et al. (2020). Glia 68:1291-1303; Goldman and Kuypers (2015) Development 142:3983-95; van Tilborg et al. (2018) Glia 66:221-238) and neuronal genes such as NEUROD1, NEUROG1 and NEUROG2 in presence of IGF-1, FGF-2 or TTNPB.

[4] = tested on: human pluripotent stem cells; test: HD-DoE #2: 13-factor model, differentiation toward anterior neuroectoderm, gene expression; type: cell-based
Source text: To further enhance the conditions for oligodendrocyte differentiation from pluripotency, we performed an additional HD-DoE experiment. We obtained additional gene regulatory models that were used for preparation of a differentiation protocol. The basis of this was a 13-factor HD-DoE experiment with focus on initiation of differentiation of cells toward anterior neuroectoderm. In this model, we focused on expression of FEZF2 and OTX2.
As shown in the results summarized in FIG. 4, the model was optimized for highest expression of OTX2 at 12755.9. According to the model of high expression of OTX2, seven effectors had positive contribution including MK2206, PD0325901, CHIR99021, LDN193189, Go6983, PD173074 and BLU9931 with highest factor contribution of 22.2 for MK2206 and lowest factor contribution of 1.7 for PD173074 and BLU9931.
As shown in the results summarized in FIG. 5, the model was optimized for highest expression of FEZF2 at 4466. When the model was optimized for maximum expression level of FEZF2, three effectors including LDN193189 with factor contribution of 19.5, PD0325901 with factor contribution of 14.6 and MK2206 with factor contribution of 12.3 were common with previous condition and three new effectors including purmorphamine-500 nM, XAV939 and SC79 were introduced.
As shown in the results summarized in FIG. 6, to fine-tune the recipe and find the optimum combination of factors for high expression of both OTX2 and FEZF2, dynamic profiling analysis was done. […] Therefore, these two factors were added to the optimized culture recipe.

[5] = tested on: pre-OPCs; test: HD-DoE 12-factor model for stage 2 (version 1), 3 days on stage 1 pre-OPCs; type: cell-based, human; conditions: for factor contribution: optimized for maximum expression of OLIG2 at 1841.6
Source text: To engineer the recipe of stage 2 of differentiation, cells were first cultured in the stage 1 media described in Example 1 and then treated with combinations of 8 or 12 factors for 3 days and the gene expression of cells in each condition was modeled. At this point, due to short duration of culture (only six days in vitro), we decided to focus on maximal expression of OLIG2 and maintenance of high expression of NKX2-2, while initiating expression of SOX10, OLIG1 and PDGFRa, to guide the cells towards oligodendrocyte fate (Emery and Lu (2015). Cold Spring Harb Perspect Biol. 7:a020461; Perlman et al. (2020). Glia 68:1291-1303; Goldman and. Kuypers (2015) Development 142:3983-95).
In one 12-factor model, the individual and combinatorial impact of SUN 11602 an agonist for FGF signaling pathway, FGF2, Activin A an activator of one of the receptors of TGF-b superfamily, A 8301, an inhibitor of TGF-b pathway, CHIR99021 a WNT activator, AGN193109 a RA antagonist, MK2206 an AKT inhibitor, Purmorphamine an agonist of SHH signaling pathway, AZD3147 an antagonist of mTOR pathway, MHY1485 an agonist of mTOR pathway, SC79 an agonist of AKT pathway and G06983 an inhibitor of PKC pathway, were tested.
Dynamic profile analysis was used to assess the expression levels of other genes of interests, such as NKX2-2, OLIG1 and SOX10, while the model is maximized for OLIG2. Activin A and SUN 11602 were brought down to zero due to their very low factor contribution. We observed when the model is optimized, the expression level of NKX2-2 is at 3000, PDGFRa at 1000, OLIG1 at 80 and SOX10 at 15 (FIG. 12).

[6] = tested on: OPCs; test: HD-DoE 12-factor model for stage 4 on OPCs, 6 days in culture; type: cell-based, human
Description: To engineer the recipe of stage 4 of differentiation, 48 or 96 different combinations of effectors generated using Design-of-Experiments compression through D-optimality were robotically prepared. The effector combinations were prepared in a basal media and were subsequently added to the cells, which were treated with the stage 1, stage 2 and stage 3 differentiation media as described in the earlier examples to generate OPCs. […] Solutions within the tested space could then be explored to address desirability. […] Benarroch (2009) Neurology 72:1779-1785; Shi et al. (2019) Exp Ther Med, 18:1258-1266).

[7] = optimized for maximum expression of SOX10 at 54.7
[8] = optimized for maximum expression of OLIG1 at 454.7
[9] = optimized for maximum expression of OLIG2 at 3325
[10] = model optimized for highest expression of OTX2 at 12755.9, positive contribution
[11] = optimized for maximum expression of CSPG4 at 38.6
[12] = dynamic profile, model maximized for OLIG2
[13] = dynamic profiling analysis, 13-factor model

For `Cc1c[nH]c(-c2cnc(NCCNc3ccc(C#N)cn3)nc2-c2ccc(Cl)cc2Cl)n1` [CHIR99021], the factor contribution [1, 7] was 9.6, the factor contribution [2, 8] was 22.8 and the factor contribution [2, 9] was 17.96. For the same compound, the factor contribution ([3]; optimized for SOX10 at 41.04) was 8.1 and the factor contribution ([3]; optimized for maximum expression of PDGFRa at 853.4) was 8.5.

`C=CC(=O)Nc1cccc(C)c1Nc1ncc2cc(-c3c(Cl)c(OC)cc(OC)c3Cl)ccc2n1` [BLU9931] was tested, and the factor contribution [4, 10] was 1.7.

`NC1(c2ccc(-c3nc4ccn5c(=O)[nH]nc5c4cc3-c3ccccc3)cc2)CCC1` [MK2206] was tested, and the factor contribution ([5]; positive regulatory effect) was 5.3, the factor contribution [1, 11] was 5.2 and the factor contribution [1, 7] was 16.2. For the same compound, the factor contribution ([4]; model optimized for highest expression of FEZF2 at 4466, positive) was 12.3 and the factor contribution [4, 10] was 22.2.

With `C[C@H]1COCCN1c1cc(C2(S(=O)(=O)C3CC3)CC2)nc(-c2ccc(NC(=S)NCCO)cc2)n1` [AZD3147] the factor contribution ([5]; positive regulatory effect) was 5.2, the factor contribution [2, 8] was 26.7 and 26.76 and the factor contribution [2, 9] was 30.2.

In the case of `C[C@H](NC(=O)Cc1cc(F)cc(F)c1)C(=O)N[C@@H]1C(=O)N(C)c2ccccc2-c2ccccc21` [DBZ], the “effect on neuronal genes” value ([1]; dynamic profile / factor effect plots) is reported as “increases neuronal genes” and the factor contribution [1, 7] is reported as 9.3.

For `NC(=O)c1ncn([C@@H]2O[C@H](CO)[C@@H](O)[C@H]2O)c1N` [AICAR], the factor contribution ([6]; optimized for PLP1 at 3600, negative impact) was 12 and 11.8 and the “effect on late OPC genes ID2, CNP and BCAN” value ([1]; factor effect plots) was “positively regulates”.

`Cc1nc(-c2ccc(C(F)(F)F)cc2)sc1C(=O)NCc1ccc(OC(C)(C)C(=O)O)cc1` [GW590735] was tested, and the “impact on SOX10 and NKX2-2 expression” value [2, 12] was “negative impact”, the factor contribution [2, 8] was 3.1 and the factor contribution [2, 9] was 5.4.

For PDGF-AA: PDGFR pathway agonist, the factor contribution [1, 11] was 2.9 and the factor contribution [1, 7] was “less than 3”.

With `C[C@H](NC(=O)Cc1cc(F)cc(F)c1)C(=O)N[C@@H]1C(=O)N(C)c2ccccc2-c2ccccc21` [GSI-XX] the “effect on expression of neuronal genes NeuroG1, NeuroG2 and NeuroD1” value ([6]; dynamic profile analysis) was “positively regulates” and the factor contribution ([6]; optimized for CNP at 1790, positive) was 7.

Compound `CCN(CC)CCCCNc1ncc2cc(-c3cc(OC)cc(OC)c3)c(NC(=O)NC(C)(C)C)nc2n1` [PD173074] has a factor contribution [4, 10] of 1.7.

For `COc1ccc2c(c1)c(C1=C(c3c[nH]c4ccccc34)C(=O)NC1=O)cn2CCCN(C)C` [Go6983], the “effect on expression of SOX10” value [5, 12] was “positively regulate”, the “impact on PDGFRA” value [5, 12] was “significant negative impact” and the factor contribution ([5]; negative impact) was 10.2 and 10.22.

In the case of `Oc1nc(-c2ccc(C(F)(F)F)cc2)nc2c1CSCC2` [XAV939], the “effect on expression of FEZF2” value [4, 13] is reported as “significant positive effects” and the “impact on expression level of OTX2” value [4, 13] is reported as “no negative impact”.
